Activity calls are given as the source filed them.

The target in data set [1] is Glycogen synthase kinase-3 beta (Mus musculus) (UniProt Q9WV60). Briefly: Inhibition of amyloid beta (1 to 42)-induced GSK3beta activation in mouse HT22 cells assessed as increase in GSK3beta phosphorylation at Ser9 residues at 10 uM after 24 hrs by ELISA. It is filed as cell-based.
The target in data set [2] is T1, Phosphatidylinositol 3,4,5-trisphosphate 5-phosphatase 2 (Homo sapiens) (UniProt O15357).
T1 sequence (whole entry): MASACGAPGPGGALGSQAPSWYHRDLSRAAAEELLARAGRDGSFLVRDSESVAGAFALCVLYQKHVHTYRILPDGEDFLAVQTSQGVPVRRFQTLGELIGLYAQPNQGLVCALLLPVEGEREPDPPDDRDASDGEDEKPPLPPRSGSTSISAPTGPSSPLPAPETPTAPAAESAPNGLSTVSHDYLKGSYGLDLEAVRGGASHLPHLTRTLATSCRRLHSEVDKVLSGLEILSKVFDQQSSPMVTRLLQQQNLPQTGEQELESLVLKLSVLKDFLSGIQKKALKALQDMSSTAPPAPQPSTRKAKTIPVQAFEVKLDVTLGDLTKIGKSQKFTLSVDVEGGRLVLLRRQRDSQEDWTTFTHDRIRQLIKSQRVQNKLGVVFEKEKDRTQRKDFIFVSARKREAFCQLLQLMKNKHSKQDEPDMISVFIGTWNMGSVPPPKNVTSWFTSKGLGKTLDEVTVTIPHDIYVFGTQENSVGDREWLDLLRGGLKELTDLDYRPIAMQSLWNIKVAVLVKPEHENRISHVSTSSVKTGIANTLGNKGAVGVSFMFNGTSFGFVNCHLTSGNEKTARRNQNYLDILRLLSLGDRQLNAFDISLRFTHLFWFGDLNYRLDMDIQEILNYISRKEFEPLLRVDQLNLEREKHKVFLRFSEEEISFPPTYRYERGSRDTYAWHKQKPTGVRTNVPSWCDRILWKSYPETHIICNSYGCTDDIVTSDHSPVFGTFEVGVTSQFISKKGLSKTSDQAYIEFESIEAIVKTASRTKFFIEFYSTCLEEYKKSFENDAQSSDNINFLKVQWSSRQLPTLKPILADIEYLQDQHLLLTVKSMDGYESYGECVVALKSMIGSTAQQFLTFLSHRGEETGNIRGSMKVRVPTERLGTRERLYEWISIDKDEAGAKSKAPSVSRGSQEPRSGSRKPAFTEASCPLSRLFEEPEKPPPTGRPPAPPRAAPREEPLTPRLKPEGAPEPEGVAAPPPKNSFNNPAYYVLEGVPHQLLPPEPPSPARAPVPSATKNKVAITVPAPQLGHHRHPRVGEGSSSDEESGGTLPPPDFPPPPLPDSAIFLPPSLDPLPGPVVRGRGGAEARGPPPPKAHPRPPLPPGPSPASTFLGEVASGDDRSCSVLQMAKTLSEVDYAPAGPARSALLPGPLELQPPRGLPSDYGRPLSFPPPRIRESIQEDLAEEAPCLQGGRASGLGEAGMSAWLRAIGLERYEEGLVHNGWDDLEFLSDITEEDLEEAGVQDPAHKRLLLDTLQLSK
In words: Inhibition of SHIP2 (unknown origin) assessed as remaining enzyme activity at 30 uM using PtdIns(3,4,5)P3 as substrate preincubated for 20 mins followed by substrate addition measured for 50 mins by malachite green staining based assay relative to control.

The target of data set [3] is CYP2D6 (Homo sapiens, UniProt P10635). Briefly: Inhibition of recombinant human CYP2D6 assessed as remaining enzyme activity at 10 uM preincubated for 5 mins followed by NADPH addition measured after 20 mins by fluorescence assay relative to control. The data set is classed as ADME. As to conditions: read-out: Activity.
The nature of data set [4]: Drug uptake in blood of Sprague-Dawley rat at 5 mg/kg, iv measured at 5 hrs by LC-MS/MS analysis. It is filed as ADME, organism-based. The settings on record: read-out: Drug uptake.
The nature of data set [5]: Clearance in Sprague-Dawley rat at 2 mg/kg, iv administered as single dose by LC-MS/MS analysis. As to conditions: in vivo. The data set is classed as ADME, organism-based.
Data set [6] is described as follows: AUC (0 to infinity) in Sprague-Dawley rat at 2 mg/kg, iv administered as single dose by LC-MS/MS analysis. The data set is classed as ADME, organism-based. The arrangement: dose 2 mg/kg, time infinity, route intravenous. As to conditions: in vivo.
A short description of data set [7]: MRT (0 to t) in Sprague-Dawley rat at 2 mg/kg, iv administered as single dose by LC-MS/MS analysis. As to conditions: in vivo. It is filed as ADME, organism-based.
The nature of data set [8]: Drug uptake in brain of Sprague-Dawley rat at 5 mg/kg, iv measured at 0.5 hrs by LC-MS/MS analysis. The data set is classed as ADME, organism-based. The settings on record: read-out: Drug uptake.
Data set [9] is described as follows: AUC (0 to t) in Sprague-Dawley rat at 2 mg/kg, iv administered as single dose by LC-MS/MS analysis. It is filed as ADME, organism-based. As to conditions: in vivo.
The nature of data set [10]: Half life in Sprague-Dawley rat at 2 mg/kg, iv administered as single dose by LC-MS/MS analysis. As to conditions: in vivo. The data set is classed as ADME, organism-based.
A short description of data set [11]: AUC (0 to t) in Sprague-Dawley rat at 10 mg/kg, po administered as single dose by LC-MS/MS analysis. The data set is classed as ADME, organism-based. The settings on record: in vivo.

CYP2D6, sequence (P10635 whole entry): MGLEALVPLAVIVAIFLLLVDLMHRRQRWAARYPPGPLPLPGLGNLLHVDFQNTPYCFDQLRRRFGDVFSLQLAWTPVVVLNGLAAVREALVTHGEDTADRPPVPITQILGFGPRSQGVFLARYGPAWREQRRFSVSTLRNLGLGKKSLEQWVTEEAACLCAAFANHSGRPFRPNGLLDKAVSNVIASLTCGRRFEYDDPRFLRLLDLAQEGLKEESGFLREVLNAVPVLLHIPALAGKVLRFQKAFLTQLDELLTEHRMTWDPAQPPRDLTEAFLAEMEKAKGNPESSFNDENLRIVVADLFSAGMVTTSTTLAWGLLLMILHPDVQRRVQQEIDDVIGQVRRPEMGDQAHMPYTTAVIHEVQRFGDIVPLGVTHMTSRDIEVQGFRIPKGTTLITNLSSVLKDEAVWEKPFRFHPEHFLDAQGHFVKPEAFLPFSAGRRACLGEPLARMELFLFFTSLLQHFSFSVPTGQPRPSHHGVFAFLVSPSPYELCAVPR
Glycogen synthase kinase-3 beta (Mus musculus), sequence (Q9WV60 whole entry, looked up): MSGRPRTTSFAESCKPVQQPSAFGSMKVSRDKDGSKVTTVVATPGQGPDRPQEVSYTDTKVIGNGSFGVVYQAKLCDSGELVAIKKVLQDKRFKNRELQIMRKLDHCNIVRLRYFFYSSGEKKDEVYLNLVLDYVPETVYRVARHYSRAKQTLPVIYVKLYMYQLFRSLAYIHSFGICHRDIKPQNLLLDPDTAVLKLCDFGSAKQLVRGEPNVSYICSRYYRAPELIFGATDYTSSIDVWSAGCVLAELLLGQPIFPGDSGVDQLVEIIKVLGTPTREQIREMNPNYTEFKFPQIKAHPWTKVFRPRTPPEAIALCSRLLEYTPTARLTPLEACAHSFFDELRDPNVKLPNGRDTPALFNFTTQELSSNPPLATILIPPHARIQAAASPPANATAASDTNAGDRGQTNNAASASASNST

`O=C(NCc1c(F)cccc1F)c1sccc1OCc1ccc(Cl)cc1Cl`: the inhibition entry in data set [1] was “Active”. The Activity in [2] came out at 17.1%. For the same compound, the activity at 20 min, 10 µM in data set [3] came to 82.7%.
Consider `C[C@@H](Oc1cncc(-c2cnc(N)nc2)c1)c1c(Cl)ccc(F)c1Cl`, for which the concentration at 5 h in data set [4] is 89.4 ng/mL. Besides, the inhibition entry in data set [1] was “Active”. Also, the clearance – broadly, a measure of how efficiently the substance is removed, as volume per time – in data set [5] is 19.5 mL/min/kg. In addition, in data set [2], the Activity came to 20.2%. For the same compound, the AUC(0-inf) – broadly, the area under the concentration-time curve extrapolated to infinity – in data set [6] was found to be 1720 ng·h/mL. Besides, the MRT last (commonly the average time that molecules of a dose stay in the body) in data set [7] stood at 1.28 h. Besides, the concentration at 0.5 h in data set [8] was determined as 4510 ng/mL. Further, the AUC(0-t) (usually exposure summed from dosing to a finite time, without extrapolation to infinity) in [9] stood at 1700 ng·h/mL; in data set [11] it was 2830 ng·h/mL. Besides, the half-life – broadly, the time needed for the level to fall by half in the phase considered – in data set [10] was 1.36 h. Also, in data set [3], the activity at 20 min, 10 µM was 94.4%.
`N#Cc1ccc(-c2cncc(OCc3ccc(Cl)cc3Cl)c2)s1`: the Activity in data set [2] is 19.9%. For the same compound, the activity at 20 min, 10 µM in [3] amounted to 93.1%.

The values are drawn from ChEMBL document CHEMBL4270607, “Identification of crizotinib derivatives as potent SHIP2 inhibitors for the treatment of Alzheimer's disease” (Eur J Med Chem, 2018).
